Assay results: ChEMBL document CHEMBL4507294, “Data for DCP probe MSD-CYP11B2” (2021)

Columns and labels:
[1] = tested on: Tyrosine-protein kinase ABL1 (Homo sapiens), P00519 [T315I]; conditions: Compound concentration 1000.0 nM
[2] = target: cGMP-dependent protein kinase 2 (Homo sapiens) (UniProt Q13237); conditions: Compound concentration 1000.0 nM
[3] = tested on: Receptor-type tyrosine-protein kinase FLT3 (Homo sapiens), P36888 [UNDEFINED MUTATION]; conditions: Compound concentration 1000.0 nM
[4] = target: Cyclin-dependent kinase 19 (Homo sapiens) (UniProt Q9BWU1); conditions: Compound concentration 1000.0 nM
[5] = target: Calcium/calmodulin-dependent protein kinase type 1 (Homo sapiens) (UniProt Q14012); conditions: Compound concentration 1000.0 nM
[6] = target: Serine/threonine-protein kinase TAO2 (Homo sapiens) (UniProt Q9UL54); conditions: Compound concentration 1000.0 nM
[7] = target: Cyclin-dependent kinase 3 (Homo sapiens) (UniProt Q00526); conditions: Compound concentration 1000.0 nM
[8] = target: Homeodomain-interacting protein kinase 2 (Homo sapiens) (UniProt Q9H2X6); conditions: Compound concentration 1000.0 nM
[9] = target: Mitogen-activated protein kinase kinase kinase 19 (Homo sapiens) (UniProt Q56UN5); conditions: Compound concentration 1000.0 nM
[10] = target: Inhibitor of nuclear factor kappa-B kinase subunit beta (Homo sapiens) (UniProt O14920); conditions: Compound concentration 1000.0 nM
[11] = target: Serine/threonine-protein kinase haspin (Homo sapiens) (UniProt Q8TF76); conditions: Compound concentration 1000.0 nM
[12] = target: Insulin receptor (Homo sapiens) (UniProt P06213); conditions: Compound concentration 1000.0 nM
[13] = target: Cyclin-dependent kinase 18 (Homo sapiens) (UniProt Q07002); conditions: Compound concentration 1000.0 nM
[14] = target: Dual specificity protein kinase CLK1 (Homo sapiens) (UniProt P49759); conditions: Compound concentration 1000.0 nM
[15] = target: Serine/threonine-protein kinase 32C (Homo sapiens) (UniProt Q86UX6); conditions: Compound concentration 1000.0 nM
[16] = target: Mitogen-activated protein kinase kinase kinase 13 (Homo sapiens) (UniProt O43283); conditions: Compound concentration 1000.0 nM
[17] = target: Interleukin-1 receptor-associated kinase 1 (Homo sapiens) (UniProt P51617); conditions: Compound concentration 1000.0 nM
[18] = target: Mitogen-activated protein kinase 14 (Homo sapiens) (UniProt Q16539); conditions: Compound concentration 1000.0 nM
[19] = target: Activated CDC42 kinase 1 (Homo sapiens) (UniProt Q07912); conditions: Compound concentration 1000.0 nM
[20] = target: Serine/threonine-protein kinase tousled-like 1 (Homo sapiens) (UniProt Q9UKI8); conditions: Compound concentration 1000.0 nM
[21] = target: Serine/threonine-protein kinase/endoribonuclease IRE1 (Homo sapiens) (UniProt O75460); conditions: Compound concentration 1000.0 nM
[22] = target: Wee1-like protein kinase 2 (Homo sapiens) (UniProt P0C1S8); conditions: Compound concentration 1000.0 nM
[23] = tested on: Mast/stem cell growth factor receptor Kit (Homo sapiens), P10721 [V559D,T670I]; conditions: Compound concentration 1000.0 nM
[24] = target: Mitogen-activated protein kinase 1 (Homo sapiens) (UniProt P28482); conditions: Compound concentration 1000.0 nM
[25] = tested on: Receptor-type tyrosine-protein kinase FLT3 (Homo sapiens), P36888 [D835Y]; conditions: Compound concentration 1000.0 nM
[26] = tested on: Tyrosine-protein kinase ABL1 (Homo sapiens), P00519 [H396P]; conditions: Compound concentration 1000.0 nM
[27] = target: Cyclin-dependent kinase 15 (Homo sapiens) (UniProt Q96Q40); conditions: Compound concentration 1000.0 nM
[28] = target: Calcium/calmodulin-dependent protein kinase type II subunit gamma (Homo sapiens) (UniProt Q13555); conditions: Compound concentration 1000.0 nM
[29] = target: T1, 5-hydroxytryptamine receptor 2C (Homo sapiens) (UniProt P28335); conditions: Compound concentration 10.0 uM
T1 sequence (whole entry): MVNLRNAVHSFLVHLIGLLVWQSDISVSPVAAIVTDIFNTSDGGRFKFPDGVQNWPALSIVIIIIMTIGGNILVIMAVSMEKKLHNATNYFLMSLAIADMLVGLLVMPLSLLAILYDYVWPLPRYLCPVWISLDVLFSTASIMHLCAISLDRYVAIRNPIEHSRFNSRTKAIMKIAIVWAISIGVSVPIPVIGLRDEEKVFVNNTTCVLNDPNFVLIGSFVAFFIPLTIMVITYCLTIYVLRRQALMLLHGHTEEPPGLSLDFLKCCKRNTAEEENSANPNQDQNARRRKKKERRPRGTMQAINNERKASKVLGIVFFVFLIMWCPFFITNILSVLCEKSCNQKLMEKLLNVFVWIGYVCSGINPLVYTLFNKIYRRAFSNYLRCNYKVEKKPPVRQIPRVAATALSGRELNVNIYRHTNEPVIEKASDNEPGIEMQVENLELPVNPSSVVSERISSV

[30] = tested on: Tyrosine-protein kinase ABL1 (Homo sapiens), P00519 [Q252H]; conditions: Compound concentration 1000.0 nM
[31] = target: SNF-related serine/threonine-protein kinase (Homo sapiens) (UniProt Q9NRH2); conditions: Compound concentration 1000.0 nM
[32] = target: RAC-beta serine/threonine-protein kinase (Homo sapiens) (UniProt P31751); conditions: Compound concentration 1000.0 nM
[33] = target: Citron Rho-interacting kinase (Homo sapiens) (UniProt O14578); conditions: Compound concentration 1000.0 nM
[34] = target: Serine/threonine-protein kinase BRSK2 (Homo sapiens) (UniProt Q8IWQ3); conditions: Compound concentration 1000.0 nM
[35] = target: Beta-1 adrenergic receptor (Homo sapiens, UniProt P08588); conditions: Compound concentration 10.0 uM
[36] = target: RAC-gamma serine/threonine-protein kinase (Homo sapiens) (UniProt Q9Y243); conditions: Compound concentration 1000.0 nM
[37] = target: Tyrosine-protein kinase JAK3 (Homo sapiens) (UniProt P52333); conditions: Compound concentration 1000.0 nM
[38] = target: Phosphatidylinositol 4,5-bisphosphate 3-kinase catalytic subunit alpha isoform (Homo sapiens) (UniProt P42336); conditions: Compound concentration 1000.0 nM
[39] = target: Serine/threonine-protein kinase SIK1 (Homo sapiens) (UniProt P57059); conditions: Compound concentration 1000.0 nM

Sequence of Serine/threonine-protein kinase 32C (Homo sapiens) (Q86UX6 whole entry): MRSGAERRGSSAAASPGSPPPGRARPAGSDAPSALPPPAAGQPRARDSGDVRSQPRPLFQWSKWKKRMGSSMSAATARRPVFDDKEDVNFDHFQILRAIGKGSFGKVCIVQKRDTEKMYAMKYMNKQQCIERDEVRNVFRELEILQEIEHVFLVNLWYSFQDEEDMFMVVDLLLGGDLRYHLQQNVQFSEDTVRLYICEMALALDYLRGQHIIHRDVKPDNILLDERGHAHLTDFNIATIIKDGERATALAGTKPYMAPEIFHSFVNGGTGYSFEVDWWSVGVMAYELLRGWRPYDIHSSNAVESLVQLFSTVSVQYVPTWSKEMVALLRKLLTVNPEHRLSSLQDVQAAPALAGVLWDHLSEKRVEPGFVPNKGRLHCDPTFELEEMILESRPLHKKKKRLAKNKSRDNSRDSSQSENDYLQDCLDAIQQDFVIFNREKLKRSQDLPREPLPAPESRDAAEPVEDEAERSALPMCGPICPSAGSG
Sequence of Cyclin-dependent kinase 3 (Homo sapiens) (Q00526 whole entry, looked up): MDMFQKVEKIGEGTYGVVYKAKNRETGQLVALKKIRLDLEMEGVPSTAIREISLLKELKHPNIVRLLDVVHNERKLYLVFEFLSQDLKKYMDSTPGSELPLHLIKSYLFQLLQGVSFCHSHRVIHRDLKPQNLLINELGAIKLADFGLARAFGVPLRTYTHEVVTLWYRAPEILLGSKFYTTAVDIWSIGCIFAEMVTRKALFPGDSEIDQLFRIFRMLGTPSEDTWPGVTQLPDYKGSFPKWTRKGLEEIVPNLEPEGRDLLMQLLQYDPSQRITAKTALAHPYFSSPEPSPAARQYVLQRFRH
Sequence of Homeodomain-interacting protein kinase 2 (Homo sapiens) (Q9H2X6 whole entry, looked up): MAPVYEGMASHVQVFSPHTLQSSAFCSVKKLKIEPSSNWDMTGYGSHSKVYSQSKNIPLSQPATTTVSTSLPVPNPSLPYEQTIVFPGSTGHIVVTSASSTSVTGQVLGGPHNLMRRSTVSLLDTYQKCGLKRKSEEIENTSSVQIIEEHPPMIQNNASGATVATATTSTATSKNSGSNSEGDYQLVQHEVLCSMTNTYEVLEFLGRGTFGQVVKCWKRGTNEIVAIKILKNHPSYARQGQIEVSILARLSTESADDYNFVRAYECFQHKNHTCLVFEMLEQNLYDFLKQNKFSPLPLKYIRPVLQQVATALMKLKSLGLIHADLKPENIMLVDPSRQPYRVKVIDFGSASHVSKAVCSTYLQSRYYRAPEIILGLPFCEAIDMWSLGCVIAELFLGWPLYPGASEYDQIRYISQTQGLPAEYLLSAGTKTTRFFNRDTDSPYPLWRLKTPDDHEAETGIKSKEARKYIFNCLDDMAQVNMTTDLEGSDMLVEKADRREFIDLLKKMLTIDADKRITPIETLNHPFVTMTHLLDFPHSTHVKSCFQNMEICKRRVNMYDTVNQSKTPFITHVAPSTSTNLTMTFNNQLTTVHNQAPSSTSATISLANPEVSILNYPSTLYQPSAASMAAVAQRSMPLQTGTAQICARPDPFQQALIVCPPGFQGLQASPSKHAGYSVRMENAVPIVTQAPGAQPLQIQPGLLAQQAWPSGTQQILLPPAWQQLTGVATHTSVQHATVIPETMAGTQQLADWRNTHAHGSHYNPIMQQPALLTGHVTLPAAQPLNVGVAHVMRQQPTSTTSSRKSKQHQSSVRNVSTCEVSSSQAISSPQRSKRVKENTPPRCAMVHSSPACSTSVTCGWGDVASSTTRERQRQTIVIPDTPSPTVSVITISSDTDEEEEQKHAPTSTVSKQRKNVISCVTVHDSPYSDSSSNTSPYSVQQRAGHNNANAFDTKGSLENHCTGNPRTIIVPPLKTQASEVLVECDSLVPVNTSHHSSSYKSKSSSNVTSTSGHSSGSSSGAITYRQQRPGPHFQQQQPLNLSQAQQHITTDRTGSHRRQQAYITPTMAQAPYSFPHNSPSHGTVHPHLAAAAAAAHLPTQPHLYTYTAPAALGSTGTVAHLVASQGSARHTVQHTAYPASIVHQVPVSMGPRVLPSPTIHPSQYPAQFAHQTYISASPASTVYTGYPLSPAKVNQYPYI
Sequence of Mast/stem cell growth factor receptor Kit (Homo sapiens), P10721 [V559D,T670I] (P10721 whole entry V559D/T670I): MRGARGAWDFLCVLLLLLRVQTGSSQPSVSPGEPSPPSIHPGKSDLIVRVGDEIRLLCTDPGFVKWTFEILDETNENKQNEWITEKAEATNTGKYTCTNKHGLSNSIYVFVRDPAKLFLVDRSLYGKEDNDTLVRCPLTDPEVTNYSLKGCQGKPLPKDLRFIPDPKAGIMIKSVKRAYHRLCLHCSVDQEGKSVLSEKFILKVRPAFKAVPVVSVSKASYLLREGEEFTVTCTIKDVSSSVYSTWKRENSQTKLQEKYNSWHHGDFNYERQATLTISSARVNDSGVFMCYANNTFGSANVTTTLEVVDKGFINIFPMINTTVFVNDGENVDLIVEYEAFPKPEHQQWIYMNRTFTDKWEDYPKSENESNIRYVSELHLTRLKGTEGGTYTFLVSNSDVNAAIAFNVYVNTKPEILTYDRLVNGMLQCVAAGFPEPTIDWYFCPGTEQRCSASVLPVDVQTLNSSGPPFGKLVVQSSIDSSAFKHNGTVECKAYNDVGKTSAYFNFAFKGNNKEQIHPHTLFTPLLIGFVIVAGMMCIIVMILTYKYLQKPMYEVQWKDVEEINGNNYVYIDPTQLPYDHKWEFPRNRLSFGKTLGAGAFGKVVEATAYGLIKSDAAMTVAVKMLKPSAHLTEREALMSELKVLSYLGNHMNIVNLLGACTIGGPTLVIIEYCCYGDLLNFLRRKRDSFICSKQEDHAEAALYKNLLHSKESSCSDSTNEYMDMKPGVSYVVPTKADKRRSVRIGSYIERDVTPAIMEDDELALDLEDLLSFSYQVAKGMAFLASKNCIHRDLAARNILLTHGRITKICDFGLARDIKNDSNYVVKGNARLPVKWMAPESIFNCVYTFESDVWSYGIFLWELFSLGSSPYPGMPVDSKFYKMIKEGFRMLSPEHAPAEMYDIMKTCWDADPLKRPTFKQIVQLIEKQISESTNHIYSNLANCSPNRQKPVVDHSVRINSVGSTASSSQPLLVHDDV
Sequence of RAC-gamma serine/threonine-protein kinase (Homo sapiens) (Q9Y243 whole entry): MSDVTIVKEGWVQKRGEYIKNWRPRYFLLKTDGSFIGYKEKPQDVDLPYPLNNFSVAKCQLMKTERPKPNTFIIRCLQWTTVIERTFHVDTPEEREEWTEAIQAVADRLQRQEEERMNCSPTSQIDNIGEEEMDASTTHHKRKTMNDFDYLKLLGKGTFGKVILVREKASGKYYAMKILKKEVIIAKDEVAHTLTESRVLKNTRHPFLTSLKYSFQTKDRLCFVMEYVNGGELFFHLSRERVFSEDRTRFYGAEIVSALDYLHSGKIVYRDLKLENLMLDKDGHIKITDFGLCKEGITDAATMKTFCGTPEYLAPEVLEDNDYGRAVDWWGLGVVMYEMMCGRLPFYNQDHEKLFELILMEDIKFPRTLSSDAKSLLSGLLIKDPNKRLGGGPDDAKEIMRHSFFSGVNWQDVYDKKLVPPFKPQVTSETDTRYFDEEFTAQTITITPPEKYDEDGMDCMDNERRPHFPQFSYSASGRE
Sequence of Interleukin-1 receptor-associated kinase 1 (Homo sapiens) (P51617 whole entry, looked up): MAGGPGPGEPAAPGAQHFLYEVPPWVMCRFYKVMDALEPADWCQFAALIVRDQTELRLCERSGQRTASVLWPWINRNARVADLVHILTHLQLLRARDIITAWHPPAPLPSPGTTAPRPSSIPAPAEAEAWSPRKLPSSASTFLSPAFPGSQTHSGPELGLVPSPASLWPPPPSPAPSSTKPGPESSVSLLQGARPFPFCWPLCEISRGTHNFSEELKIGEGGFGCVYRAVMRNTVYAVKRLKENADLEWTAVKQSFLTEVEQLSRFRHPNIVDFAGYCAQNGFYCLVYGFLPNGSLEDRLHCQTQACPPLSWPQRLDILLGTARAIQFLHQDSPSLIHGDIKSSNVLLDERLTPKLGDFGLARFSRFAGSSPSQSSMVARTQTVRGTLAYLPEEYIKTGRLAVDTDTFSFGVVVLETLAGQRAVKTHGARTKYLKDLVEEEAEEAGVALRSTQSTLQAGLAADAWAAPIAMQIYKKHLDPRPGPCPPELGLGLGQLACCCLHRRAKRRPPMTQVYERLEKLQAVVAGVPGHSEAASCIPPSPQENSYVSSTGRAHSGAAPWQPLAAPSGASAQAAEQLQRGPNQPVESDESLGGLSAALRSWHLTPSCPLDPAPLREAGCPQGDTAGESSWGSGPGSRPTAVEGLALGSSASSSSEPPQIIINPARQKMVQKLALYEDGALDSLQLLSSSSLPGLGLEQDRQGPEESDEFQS
Sequence of SNF-related serine/threonine-protein kinase (Homo sapiens) (Q9NRH2 whole entry): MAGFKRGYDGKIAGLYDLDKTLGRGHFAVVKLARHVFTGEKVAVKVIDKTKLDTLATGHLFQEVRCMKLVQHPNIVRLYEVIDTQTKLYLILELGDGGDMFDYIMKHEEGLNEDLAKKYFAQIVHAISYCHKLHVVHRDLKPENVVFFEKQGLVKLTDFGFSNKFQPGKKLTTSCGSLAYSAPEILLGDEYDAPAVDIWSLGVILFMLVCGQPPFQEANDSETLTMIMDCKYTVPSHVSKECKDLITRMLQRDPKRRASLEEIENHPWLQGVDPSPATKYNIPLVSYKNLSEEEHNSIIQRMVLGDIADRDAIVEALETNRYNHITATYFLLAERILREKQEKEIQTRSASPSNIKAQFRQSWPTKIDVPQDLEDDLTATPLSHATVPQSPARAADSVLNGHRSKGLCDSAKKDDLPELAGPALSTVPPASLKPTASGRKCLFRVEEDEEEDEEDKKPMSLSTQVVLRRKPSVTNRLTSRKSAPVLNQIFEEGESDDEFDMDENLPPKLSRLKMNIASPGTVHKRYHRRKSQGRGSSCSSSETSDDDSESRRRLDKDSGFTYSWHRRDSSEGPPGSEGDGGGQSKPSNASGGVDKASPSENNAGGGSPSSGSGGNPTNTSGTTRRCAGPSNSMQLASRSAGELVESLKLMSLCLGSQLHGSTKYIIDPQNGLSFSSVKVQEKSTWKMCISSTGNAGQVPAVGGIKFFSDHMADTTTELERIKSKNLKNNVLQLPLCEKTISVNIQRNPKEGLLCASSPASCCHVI

Q: Which results are given for `FC(F)(F)c1ccc2c(c1)nc(-c1cccnc1)n2C1CC1` [MSD-CYP11B2-Negative-control]?
A: residual activity [1]: 100%; residual activity [2]: 78%; residual activity [3]: 100%; residual activity [4]: 100%; residual activity [5]: 100%; residual activity [6]: 99%; residual activity [7]: 100%; residual activity [8]: 100%; residual activity [9]: 99%; residual activity [10]: 100%; residual activity [11]: 96%; residual activity [12]: 100%; residual activity [13]: 100%; residual activity [14]: 100%; residual activity [15]: 100%; residual activity [16]: 100%; residual activity [17]: 100%; residual activity [18]: 99%; residual activity [19]: 100%; residual activity [20]: 100%; residual activity [21]: 100%; residual activity [22]: 100%; residual activity [23]: 100%; residual activity [24]: 100%; residual activity [25]: 100%; residual activity [26]: 100%; residual activity [27]: 100%; residual activity [28]: 100%; inhibition [29]: 30.8%; residual activity [30]: 81%; residual activity [31]: 82%; residual activity [32]: 100%; residual activity [33]: 100%; residual activity [34]: 90%; inhibition [35]: 13.4%; residual activity [36]: 100%; residual activity [37]: 100%; residual activity [38]: 100%; residual activity [39]: 100%

Q: Which results are given for `CC(C)(O)c1cncc(-c2nc3ccc(F)cc3n2C2CC2)c1` [MSD-CYP11B2]?
A: residual activity [1]: 100%; residual activity [2]: 90%; residual activity [3]: 100%; residual activity [4]: 94%; residual activity [5]: 100%; residual activity [6]: 100%; residual activity [7]: 100%; residual activity [8]: 100%; residual activity [9]: 93%; residual activity [10]: 100%; residual activity [11]: 83%; residual activity [12]: 100%; residual activity [13]: 100%; residual activity [14]: 94%; residual activity [15]: 100%; residual activity [16]: 100%; residual activity [17]: 100%; residual activity [18]: 100%; residual activity [19]: 100%; residual activity [20]: 100%; residual activity [21]: 100%; residual activity [22]: 100%; residual activity [23]: 100%; residual activity [24]: 100%; residual activity [25]: 100%; residual activity [26]: 100%; residual activity [27]: 84%; residual activity [28]: 100%; inhibition [29]: 100%; residual activity [30]: 89%; residual activity [31]: 86%; residual activity [32]: 84%; residual activity [33]: 100%; residual activity [34]: 100%; inhibition [35]: 59.4%; residual activity [36]: 100%; residual activity [37]: 100%; residual activity [38]: 100%; residual activity [39]: 100%
